{"source": "patent US5955508A", "about": "“Method for the enhancement of lymphocyte activity against opportunistic microbial pathogens” (priority 1996, dated 1999)", "key": {"T-cell counts": {"system": "T-cell counts", "settings": "AIDS patients; fenfluramine with phentermine; cited from earlier work"}, "[1]": {"system": "human percoll-fractionated peripheral blood lymphocytes mediated NK activity", "settings": "in vitro, cited from earlier work"}, "fungal infections": {"system": "fungal infections", "settings": "AIDS patients; cited from earlier work"}, "[2]": {"test": "Plasma d-FEN and d-norFEN levels and half-life in mice", "format": "in vivo", "settings": "mouse; d-FEN p.o. in drinking water; sacrificed 11:00-13:00 h", "description": "Mice like rats are prandial drinkers during the dark period of the light-dark cycle. The animals were sacrificed between 11:00 and 13:00 h, 4-6 h after the end of the dark period."}, "K562 human tumor cells": {"system": "K562 human tumor cells", "test": "Natural killer cell cytotoxicity of human PBMC against K562 tumor cells in vitro", "format": "cell-based", "description": "Prior to conducting the above experiment, we examined the dose dependent effects of d-FEN on the ability of human PBMC obtained from five healthy volunteers (person Caucasians) to kill human K562 tumor cells in vitro. The potential cytotoxic enhancing effects of d-FEN and d-norFEN were compared using PBMC from two of the five human donors.\nFor assessment of immunological parameters of human PBMC, venous blood as aseptically drawn into sterile 10 ml tubes containing 20 U/ml preservative free heparin, diluted with an equal volume of Hank's Balanced Salt Solution (HBSS), layered over Lymphocyte Separation Medium (LSM, Bionetics, Kensington, Md.) and centrifuged at 1,000 ×g for 30 min. After centrifugation, the mononuclear cell layer was recovered from the interface and washed twice in HBSS and enumerated.\nThe K562 cell line originated from a chronic myelogenous leukemia patient and was obtained from Dr. T. Ellis (Director, Cellular Immunology Laboratory, LUMC). The K562 cells used for assessment of cytotoxic activity were maintained in long term cultures using Corning 25 cm^2 tissue culture flasks (Corning Glass Works, Corning, N.Y.) containing RPMI 1640 (Gibco Laboratories, Grand Island, N.Y.) supplemented with low LPS 10% fetal bovine serum (FBS; Gibco), 100 units/ml penicillin, 100 μg/ml streptomycin (Whittaker M. A. Bioproducts, Walkersville, Md.), 0.1 mM non-essential amino acids, and 2 mM L-glutamine (Gibco). This medium was used throughout, except where noted, and is referred to as \"culture medium\". The K562 cells were grown in suspension and were passaged three times per week by transfer of 10^6 K562 cells into a flask containing 10 ml of fresh culture medium. The K562 cells injected into the SCID mice were supplemented with fresh medium at a 1:3 dilution the day before administration. They were washed once in medium, pelleted by centrifugation at 500 ×g for 10 min., then resuspended at a concentration of 5×10^7. Subsequently, 0.2 ml (1×10^7 cells) of the cell suspension was injected (i.p.) into each SCID mouse. The K562 cells were administered to the animals four days after the injection of PBMC.\nThe K562 tumor cell lines maintained in vitro were washed once in culture medium, pelleted by centrifugation at 500×g for 10 min and resuspended in approximately 0.1 ml of culture medium. Subsequently, 100 μCi of [^51 Cr] (New England Nuclear, Boston, Mass.) was added to 1×10^5 cells in a final volume of 0.2 ml. The cells were incubated at 37° C. with 5% CO2 for 1 h with agitation every 10 min, then washed 3 times in HBSS, resuspended to 5×10^4 cells/ml in culture medium and 0.1 ml (5×10^3) aliquoted to each well of a 96 well round bottom assay plate (Corning Glass Works, Corning, N.Y.). Radiolabelled K562 was cultured for 4 h with lymphocytes at effector to target ratios ranging from 50:1 to 6:1. Following 4 h of culture the media was removed using a Skatron harvesting press (Skatron Inc., Sterling, Va.) and associated radioactivity determined. Maximum release was obtained by adding 0.05% Nonidet P-40 (Sigma Chemical Co., St. Louis, Mo.).\nThe results have been expressed as % cytotoxicity and calculated by the formula: % cytotoxicity=[(experimental DPM-minimum DPM)/(maximum DPM-minimum DPM)]×100.\nAll experimental means were calculated from triplicate values. Lytic units (LU) were calculated using a computer program written by David Coggins, FCRC, Frederick, Md."}, "[3]": {"settings": "mouse; cited from earlier work"}}, "data": [{"smiles": "CCNC(C)Cc1cccc(C(F)(F)F)c1", "note": "(racemic) [fenfluramine]", "values": [{"measurement": "T-cell counts in words", "setting": "T-cell counts", "result": "significant improvement of their T-cell counts"}]}, {"smiles": "NCCc1c[nH]c2ccc(O)cc12", "note": "[5-HT]", "values": [{"measurement": "effect on NK activity in words", "setting": "[1]; 5-HT dose dependent", "result": "stimulatory effects"}, {"measurement": "duration of NK stimulation", "setting": "[1]", "result": 16, "unit": "h"}]}, {"smiles": "C[C@@H]1[C@H](O)[C@@H](C)/C=C/C=C/C=C/C=C/C=C/C=C/C=C/[C@H](O[C@@H]2O[C@H](C)[C@@H](O)[C@H](N)[C@@H]2O)C[C@@H]2O[C@](O)(C[C@@H](O)C[C@@H](O)[C@H](O)CC[C@@H](O)C[C@@H](O)CC(=O)O[C@H]1C)C[C@H](O)[C@H]2C(=O)O", "note": "[amphotericin B]", "values": [{"measurement": "effect on fungal infections in words", "setting": "fungal infections", "result": "can suppress fungal infections, but for the first time appear to have no curative effect in AIDS patients"}]}, {"smiles": "C[C@H](N)Cc1cccc(C(F)(F)F)c1", "note": "[d-norFEN]", "values": [{"measurement": "plasma d-FEN and d-norFEN levels at sacrifice", "setting": "[2]", "result": "Neither d-FEN nor d-norFEN was detected"}, {"measurement": "percent increase in cytotoxicity", "setting": "K562 human tumor cells; 0.25 ng/ml, DONOR #1", "result": 29, "unit": "%"}, {"measurement": "percent increase in cytotoxicity", "setting": "K562 human tumor cells; 0.25 ng/ml, DONOR #2", "result": 19, "unit": "%"}, {"measurement": "percent increase in cytotoxicity", "setting": "K562 human tumor cells; 0.50 ng/ml, DONOR #1", "result": 24, "unit": "%"}, {"measurement": "percent increase in cytotoxicity", "setting": "K562 human tumor cells; 0.50 ng/ml, DONOR #2", "result": 28, "unit": "%"}, {"measurement": "percent increase in cytotoxicity", "setting": "K562 human tumor cells; 1.00 ng/ml, DONOR #1", "result": 11, "unit": "%"}, {"measurement": "percent increase in cytotoxicity", "setting": "K562 human tumor cells; 1.00 ng/ml, DONOR #2", "result": 13, "unit": "%"}, {"measurement": "d-FEN vs d-norFEN effect on cytotoxicity in words", "setting": "K562 human tumor cells; PBMC of two donors", "result": "virtually identical effects"}, {"measurement": "effect on capacity of human NK cells to kill K562, in words", "setting": "K562 human tumor cells; conclusion", "result": "augments the capacity of human NK cells to kill the human tumor cell line, K562"}, {"measurement": "t1/2", "setting": "[3]", "result": 6, "unit": "h"}]}]}
